Common to all, as to format: cell-based, human
The subject of one data set is TPTE expression. In words: Methylation studies: induceability of TPTE expression by genomic demethylation, real-time RT-PCR. Particulars: 72 h, 2 μM or 10 μM. The procedure: Real-time RT-PCR analysis of the TPTE expression in the non-expressing cell lines BT549 and HCT116 following treatment of the cells with 2 μM and 10 μM 5-aza-2′-desoxycytidine, respectively, and in HCT116 cells which are deficient for DNA methyltransferase.
For investigating the induceability of TPTE expression by genomic demethylation, TPTE negative cell lines BT549 (Mamma-Ca) and HCT116 (Colon-Ca) were cultivated for 72 h with 2 μM or 10 μM 5-aza-2′-desoxycytidine. Then, the TPTE expression was quantified by means of real-time RT-PCR. Furthermore, TPTE expression was quantified in DNA methyl transferase (DNMT) deficient HCT116 cells. While DNMT1 (HCT116^DNMT1−/−) or DNMT3b (HCT116^ENMT3b−/−) deficient cells show an almost unchanged methylation pattern when compared to the parental cell line (HCT116^Par), cells in which both DNMTs have been simultaneously deleted (HCT116^DKO) are characterized by an almost complete demethylation of genomic DNA.
A quantitative real-time PCR (40 cycles, initial denaturation 15 min 95° C., 30 sec 94° C., 30 sec 62° C. and 30 sec 72° C.) was performed using specific primers (sense […] (SEQ ID NO: 823); antisense […] (SEQ ID NO: 28)) (FIG. 19). […] The ectopic expression of many known CT genes in tumors is induced by promoter demethylation. […]

In data set [1] the test system is PC-3 prostate carcinoma cells. The experiment in a line: Boyden chamber (Transwell) migration assay of PC-3 cells after TPTE-siRNA electroporation.
In a further data set the test system is TPTE mRNA. In words: Knock-down of TPTE expression in PC-3 cells using RNAi, real-time RT-PCR. Particulars: PC-3 cells electroporated with 1 μM siRNA, 24 hours later, quantitative real-time RT-PCR. The procedure:
PC-3 cells were electroporated using 1 μM siRNA specific for TPTE. After 24 h mRNA expression was quantified by real-time RT-PCR. Non-electroporated cells and cells electroporated with DsRed siRNA served as controls.
Expression of TPTE, MS4A12, PCSC and BRCO1 was also quantified using real-time PCR, however, the PCR products were detected using SYBR-Green as reporter dye. The reporter fluorescence of SYBR-Green is suppressed in solution and the dye is only active following binding to double-stranded DNA fragments. The increase of SYBR-Green fluorescence due to the specific amplification by means of GOI-specific primers following each PCR cycle is used for quantification. Quantification of expression of the target gene is performed absolute or relative to the expression of a control gene with constant expression in the tissues to be studied. LDHC expression was calculated by means of the ΔΔ-CT method (PE Biosystems, USA), after normalizing the samples to 18s RNA as “house-keeping” gene. The reactions were carried out in duplex mixtures and determined in triplicate. The QuantiTect SYBR-Green PCR kit (Qiagen, Hilden) was used according to the manufacturer's instructions. cDNA was synthesized using the High Capacity cDNA Archive Kit (PE Biosystems, USA) and hexamer primers according to the manufacturer's information. […]
(Quantitative PCR measures a nucleic acid by following its amplification.)

We go through two compounds from US8765389B2, “Genetic products which are differentially expressed in tumors and use thereof” (Ganymed Pharmaceuticals AG, priority 2003, dated 2014).

d = 2'-deoxy (DNA); r = 2'-OH (RNA)

As for `Nc1ncn([C@H]2C[C@H](O)[C@@H](CO)O2)c(=O)n1` [5-aza-2′-desoxycytidine], the “induction of TPTE expression” value with TPTE expression (BT549 (Mamma-Ca) cells) and with TPTE expression (HCT116 (Colon-Ca) cells) was “strong induction of TPTE expression” in each case.

Regarding “TPTE-siRNA: siRNA duplex (SEQ ID NO: 826/827) targeting nucleotides 2043-2061 of the TPTE mRNA sequence (NM_013315) (chain 1 CCCUGCCACAUGUUCAUAUTT; chain 2 AUAUGAACAUGUGGCAGGGTT; sugars from the 5' end r19 d2, backbone not given here)”, the “cell migration in the Boyden chamber assay” value in data set [1] (48 h after electroporation with 1 μM TPTE-siRNA) was “Relevant decrease of cell migration”. Besides, the “reduction of the migration rate” value in data set [1] (Transwell migration assay, compared to untreated cells and cells electroporated with irrelevant siRNA) is listed as 70%. For the same compound, the “decrease in TPTE expression” value in the data set on TPTE mRNA is 70%.
